PMC10145973, “Genomic Insights into Bacterial Resistance to Proline-Rich Antimicrobial Peptide Bac7” (Membranes, 2023)
In brackets after ≈: the same amount, converted by molar mass. Several values for one entry are separate records, joined by “and”; a condition that tells them apart may be missing. Identical values can stand only once. Like-named read-outs stand apart in the source and are kept apart here. Marks after values point to notes of the source that are not given here. Where a SMILES comes first, the peptide text is derived from it. Bridges are numbered along the chain shown (N, C = ends). [ ]: non-standard residue; d: D form. The star is where a group is joined. X1 = CC[C@H](C)CCCCC(=O)*; Dab = NCC[C@H](N)C(=O)O

Key:
[1] = test system: E. coli BW25113 ΔsbmA (sbmA::kan, JW0368); test: MIC, broth microdilution, sbmA knockout; format: cell-based, Escherichia coli; details: Fig. 3C, 24 h, 37 °C
[2] = test system: E. coli BW25113 WT; test: MIC, broth microdilution, BW25113; format: cell-based, Escherichia coli; details: 24 h, 37 °C
[3] = test system: E. coli MDR 1057 B1; details: Fig. 3C, 24 h, 37 °C
[4] = test system: E. coli MDR 1057 B2; details: 24 h, 37 °C; for Minimum Inhibitory Concentration, B2: Table 2, broth microdilution in MHB (medium ±0.9% NaCl not given), 0.1% BSA, median of at least three independent experiments in triplicate
[5] = test system: E. coli BW25113 ΔwaaP (waaP::kan, JW3605); test: MIC, broth microdilution, waaP knockout; format: cell-based, Escherichia coli; details: 24 h, 37 °C
[6] = test system: E. coli MDR 1057 B3; details: 24 h, 37 °C; for Minimum Inhibitory Concentration, B3: Table 2, broth microdilution in MHB (medium ±0.9% NaCl not given), 0.1% BSA, median of at least three independent experiments in triplicate
[7] = test system: E. coli MDR 1057 WT; details: 24 h, 37 °C; for Minimum Inhibitory Concentration, WT: Table 2, broth microdilution in MHB (medium ±0.9% NaCl not given), 10^6 CFU/mL suspension, agents diluted in 0.1% BSA, visible turbidity, median of at least three independent experiments in triplicate
[8] = test system: E. coli MDR 1057 P1; details: Table 2, broth microdilution in MHB (medium ±0.9% NaCl not given), 0.1% BSA, 24 h, 37 °C, median of at least three independent experiments in triplicate
[9] = test system: E. coli BW25113 ΔwaaP (pBAD-WaaP^N159H); details: complementation in BW25113 ΔwaaP, 0.1 g/L arabinose
[10] = test system: E. coli MDR 1057 strain
[11] = test system: resistant Salmonella enterica strain (pmrB mutations); details: cited from earlier work
[12] = test system: extensively drug-resistant Klebsiella pneumoniae isolate; parameters: method as in PMID 30445429; details: serially passaged in the presence of the agent; cited from earlier work
[13] = test system: E. coli MDR 1057 WT; test: microbe, parasite or virus in culture; details: Escherichia coli, MDR1057WT, 24 h, read-out: Minimum Inhibitory Concentration, WT
[14] = test system: E. coli MDR 1057 P1; test: microbe, parasite or virus in culture; details: Escherichia coli, MDR1057P1, 24 h, read-out: Minimum Inhibitory Concentration, P1
[15] = test system: E. coli MDR 1057 B2; test: microbe, parasite or virus in culture; details: Escherichia coli, MDR1057B2, 24 h, read-out: Minimum Inhibitory Concentration, B2
[16] = test system: E. coli MDR 1057 B3; test: microbe, parasite or virus in culture; details: Escherichia coli, MDR1057B3, 24 h, read-out: Minimum Inhibitory Concentration, B3
[17] = test system: Mycobacterium phlei; parameters: method as in PMID 35629841; details: cited from earlier work
[18] = test system: Mycobacterium smegmatis mc(2)155; test: MIC against Mycobacterium smegmatis (unpublished data); format: cell-based; details: authors' unpublished data
[19] = test system: septic shock-modelled rats; parameters: method as in PMID 12785015; details: comparable with polymyxin B; cited from earlier work
[20] = test system: M. tuberculosis H37Rv; details: cited from earlier work
[21] = Fig. 3C and text, MHB +0.9% NaCl
[22] = selection in MHB without 0.9% NaCl

Compound: CC[C@H](C)[C@H](NC(=O)[C@H](CCCNC(=N)N)NC(=O)[C@@H](N)CCCNC(=N)N)C(=O)N[C@@H](CCCNC(=N)N)C(=O)N1CCC[C@H]1C(=O)N[C@@H](CCCNC(=N)N)C(=O)N1CCC[C@H]1C(=O)N1CCC[C@H]1C(=O)N[C@@H](CCCNC(=N)N)C(=O)N[C@@H](CC(C)C)C(=O)N1CCC[C@H]1C(=O)N[C@@H](CCCNC(=N)N)C(=O)N1CCC[C@H]1C(=O)N[C@@H](CCCNC(=N)N)C(=O)N1CCC[C@H]1C(=O)N[C@@H](CCCNC(=N)N)C(=O)N1CCC[C@H]1C(=O)N[C@@H](CC(C)C)C(=O)N1CCC[C@H]1C(=O)N[C@@H](Cc1ccccc1)C(=O)N1CCC[C@H]1C(=O)N[C@@H](CCCNC(=N)N)C(=O)O [Bac7_1-22] (H-RRIRPRPPRLPRPRPRPLPFPR-OH)
- MIC, MHB +0.9% NaCl ([1]; MHB +0.9% NaCl): 16 µM (≈ 44.6 µg/mL)
- MIC, MHB ([1]; salt-free MHB): 1 µM
- MIC, MHB +0.9% NaCl [2, 21]: 1 µM (≈ 2.78 µg/mL)
- MIC, MHB ([2]; Fig. 3C, salt-free MHB): 2 µM
- MIC, MHB +0.9% NaCl ([3]; MHB +0.9% NaCl): 32 µM (≈ 89.1 µg/mL)
- MIC, MHB ([3]; salt-free MHB): 1 µM
- MIC, MHB +0.9% NaCl ([4]; Fig. 3C, MDR 1057 B2, MHB +0.9% NaCl): 32 µM (≈ 89.1 µg/mL)
- MIC, MHB ([4]; Fig. 3C, MDR 1057 B2, salt-free MHB): 1 µM
- Minimum Inhibitory Concentration, B2 [4]: >32 µM
- MIC, MHB +0.9% NaCl [5, 21]: 1 µM (≈ 2.78 µg/mL)
- MIC, MHB ([5]; Fig. 3C, salt-free MHB): 2 µM
- MIC, MHB +0.9% NaCl ([6]; Fig. 3C and text, MDR 1057 B3, MHB +0.9% NaCl): 32−64 μM
- MIC, MHB ([6]; Fig. 3C and text, MDR 1057 B3, salt-free MHB): 32 µM
- Minimum Inhibitory Concentration, B3 [6]: >32 µM
- MIC, MHB +0.9% NaCl ([7]; Fig. 3C, MDR 1057 WT, MHB +0.9% NaCl, median of ≥3 experiments): 2 µM (≈ 5.57 µg/mL)
- MIC, MHB ([7]; Fig. 3C, MDR 1057 WT, salt-free MHB, median of ≥3 experiments): 1−2 μM
- Minimum Inhibitory Concentration, P1 [8]: 16 * µM
- increase in MICs for the strain expressing waaP^N159H as compared with the wild-type variant [9]: 4–8 fold
- increases in MIC values after initial 3-4 passages ([10]; selection in MHB + 0.9% NaCl, strains B1 and B2): ≥ 32 fold
- increase in MICs after 4 weeks of selection, strain B3 [10, 22]: 32 fold
- increase in MICs after 4 weeks of selection, strain B4 [10, 22]: 4 fold
- increase in minimal inhibitory concentrations (MICs), three resistant strains ([10]; serial passaging, four-week experimental evolution (abstract)): ≥ 16 fold

Compound: CC[C@H](C)CCCCC(=O)N[C@@H](CCN)C(=O)N[C@H](C(=O)N[C@@H](CCN)C(=O)N[C@H]1CCNC(=O)[C@H]([C@@H](C)O)NC(=O)[C@H](CCN)NC(=O)[C@H](CCN)NC(=O)[C@H](CC(C)C)NC(=O)[C@@H](Cc2ccccc2)NC(=O)[C@H](CCN)NC1=O)[C@@H](C)O [Polymyxin B] (X1-[Dab]T[Dab][Dab][Dab][dF]L[Dab][Dab]T; lactam 4-C (inferred); N-terminus assumed)
- MIC after a single pmrB mutation ([11]; listed as PmxB): up to 3 µg/mL and ≤ 4 µM
- increase in MIC after serial passage [12]: ≥ 1000 fold
- Minimum Inhibitory Concentration, B2 [4]: 0.125 µM
- Minimum Inhibitory Concentration, B3 [6]: 8 µM
- Minimum Inhibitory Concentration, WT [7]: 0.125 µM
- Minimum Inhibitory Concentration, P1 ([8]; listed as PmxB): > 128 µM
- final MIC relative to initial MIC, the P2 strain ([10]; PmxB selection): 32 × MIC
- final MIC relative to initial MIC, the P1 strain ([10]; PmxB selection, MHB + 0.9% NaCl, 25 passages): 2048 × MIC
- final MIC value, the P1 strain ([10]; PmxB selection, MHB + 0.9% NaCl, 25 passages, then three passages on drug-free agar): 128 µM
- final MIC value, the P2 strain ([10]; PmxB selection, after final passage and three passages on drug-free agar): 2 µM
- MIC at start of the selection experiment ([10]; both repetitions (P1 and P2), before selection): 0.0625 µM

Compound: CO[C@H]1/C=C/O[C@@]2(C)Oc3c(C)c(O)c4c(O)c(c(/C=N/N5CCN(C)CC5)c(O)c4c3C2=O)NC(=O)/C(C)=C\C=C\[C@H](C)[C@H](O)[C@@H](C)[C@@H](O)[C@@H](C)[C@H](OC(C)=O)[C@@H]1C [Rifampicin]
- MIC [13]: 64 µM (≈ 52.7 µg/mL)
- MIC [14]: 64 µM (≈ 52.7 µg/mL)
- MIC [15]: 128 µM (≈ 105 µg/mL)
- MIC [16]: 64 µM (≈ 52.7 µg/mL)

Compound: CC[C@H]1OC(=O)[C@H](C)[C@@H](O[C@H]2C[C@@](C)(OC)[C@@H](O)[C@H](C)O2)[C@H](C)[C@@H](O[C@@H]2O[C@H](C)C[C@H](N(C)C)[C@H]2O)[C@](C)(O)C[C@@H](C)/C(=N\OCOCCOC)[C@H](C)[C@@H](O)[C@]1(C)O [Roxithromycin]
- MIC [13]: 256 µM (≈ 214 µg/mL)
- MIC [14]: > 256 µM
- MIC [15]: 256 µM (≈ 214 µg/mL)
- MIC [16]: 256 µM (≈ 214 µg/mL)

Compound: CN[C@@H]1[C@H](O)[C@H](NC)[C@H]2O[C@@]3(O)C(=O)C[C@@H](C)O[C@H]3O[C@@H]2[C@H]1O [Spectinomycin]
- MIC [13]: 32 µM (≈ 10.6 µg/mL)
- MIC [14]: 64 µM (≈ 21.3 µg/mL)
- MIC [15]: 32 µM (≈ 10.6 µg/mL)
- MIC [16]: 32 µM (≈ 10.6 µg/mL)

Compound: CC[C@H](C)[C@H](NC(=O)[C@H](CCCNC(=N)N)NC(=O)[C@@H](N)CCCNC(=N)N)C(=O)N[C@@H](CCCNC(=N)N)C(=O)N[C@@H](CCCNC(=N)N)C(=O)N1CCC[C@H]1C(=O)N[C@@H](CCCNC(=N)N)C(=O)N[C@@H](CC(C)C)C(=O)N1CCC[C@H]1C(=O)N[C@@H](CCCNC(=N)N)C(=O)N1CCC[C@H]1C(=O)N[C@@H](CCCNC(=N)N)C(=O)N[C@H](C(=O)N1CCC[C@H]1C(=O)N[C@@H](CCCNC(=N)N)C(=O)N1CCC[C@H]1C(=O)N[C@@H](CCCNC(=N)N)C(=O)N[C@H](C(=O)N1CCC[C@H]1C(=O)N1CCC[C@H]1C(=O)N[C@@H](CCCNC(=N)N)C(=O)N[C@H](C(=O)N1CCC[C@H]1C(=O)N[C@@H](CCCNC(=N)N)C(=O)N1CCC[C@H]1C(=O)N[C@H](C(=O)N[C@@H](CC(C)C)C(=O)N1CCC[C@H]1C(=O)N1CCC[C@H]1C(=O)N1CCC[C@H]1C(=O)N[C@@H](CCCNC(=N)N)C(=O)N[C@H](C(=O)N1CCC[C@H]1C(=O)N[C@@H](Cc1ccccc1)C(=O)N1CCC[C@H]1C(=O)N[C@@H](CCCNC(=N)N)C(=O)N[C@@H](Cc1ccccc1)C(=O)N1CCC[C@H]1C(=O)N[C@@H](CCCNC(=N)N)C(N)=O)C(C)C)C(C)C)[C@@H](C)CC)[C@@H](C)CC)C(C)C [VicBac] (H-RRIRRPRLPRPRVPRPRIPPRIPRPVLPPPRVPFPRFPR-NH2; N-terminus assumed)
- MIC [17]: 0.5 to 1 µM
- Minimum Inhibitory Concentration, B2 [4]: 2 µM
- MIC [18]: 0.5 to 1 µM
- Minimum Inhibitory Concentration, B3 [6]: 2 µM
- Minimum Inhibitory Concentration, WT [7]: 1 µM
- Minimum Inhibitory Concentration, P1 [8]: 4 µM

Compound: Bac7_1-35: Bac7 fragment 1-35 (RRIRPRPPRLPRPRPRPLPFPRPGPRPIPRPLPFP; Bactenecin-7; UniProt P19661 131-165, looked up, fragment)
- plasma LPS levels and lethality rates [19]: significant decrease

Compound: PR-39
- concentration inhibiting growth [20]: about 10 µM

Compound: colistin
- MIC after a single pmrB mutation [11]: up to 3 µg/mL and ≤ 4 µM
- increase in MIC after serial passage [12]: ≥ 1000 fold
